Reference: ChEMBL document CHEMBL4418302, “C-myc ligands capable of dimerizing in an aqueous solution, and methods of using same” (2016)
Activity calls are given as the source filed them. The calls are words filed in the database; no cut-off is given here.

Legend:
[1] = test system: MV4-11; assay: Antiproliferative activity against human MV411 cells up to 30 uM incubated for 3 days by Cell-Titer 96 aqueous one solution cell proliferation assay; assay type: functional, cell-based
[2] = test system: Daudi; assay: Antiproliferative activity against human Daudi cells incubated for 3 days by Cell-Titer 96 aqueous one solution cell proliferation assay; assay type: functional, cell-based; details: 72 h
[3] = test system: K562; assay: Antiproliferative activity against human K562 cells incubated for 3 days by Cell-Titer 96 aqueous one solution cell proliferation assay; assay type: functional, cell-based; details: K562, 72 h
[4] = test system: MV4-11; assay: Antiproliferative activity against human MV411 cells incubated for 3 days by Cell-Titer 96 aqueous one solution cell proliferation assay; assay type: functional, cell-based; details: MV4-11, 72 h
[5] = test system: Daudi; assay: Antiproliferative activity against human Daudi cells up to 30 uM incubated for 3 days by Cell-Titer 96 aqueous one solution cell proliferation assay; assay type: functional, cell-based
[6] = test system: K562; assay: Antiproliferative activity against human K562 cells up to 30 uM incubated for 3 days by Cell-Titer 96 aqueous one solution cell proliferation assay; assay type: functional, cell-based
[7] = molecular target: Myc proto-oncogene protein (Homo sapiens, UniProt P01106); assay: Binding affinity to recombinant full-length DDK-tagged human c-Myc expressed in HEK293T cells assessed as inhibition of Max/c-Myc protein-protein interaction incubated for 1 hr by ELISA; assay type: cell-based
Myc proto-oncogene protein, sequence (P01106 whole entry): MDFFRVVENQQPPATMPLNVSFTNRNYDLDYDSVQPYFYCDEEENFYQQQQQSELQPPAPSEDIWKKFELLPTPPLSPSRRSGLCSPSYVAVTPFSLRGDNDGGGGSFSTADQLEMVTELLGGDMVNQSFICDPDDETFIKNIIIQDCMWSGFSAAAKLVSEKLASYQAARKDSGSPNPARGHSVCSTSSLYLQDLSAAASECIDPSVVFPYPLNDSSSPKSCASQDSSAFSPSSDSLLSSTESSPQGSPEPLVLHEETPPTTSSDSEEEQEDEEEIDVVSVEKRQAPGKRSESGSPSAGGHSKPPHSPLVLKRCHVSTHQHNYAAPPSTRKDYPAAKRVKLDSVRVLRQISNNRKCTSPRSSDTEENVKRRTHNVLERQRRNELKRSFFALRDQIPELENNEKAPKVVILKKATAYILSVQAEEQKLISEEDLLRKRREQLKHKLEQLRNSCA

| SMILES | Activity [1] | IC50 [2] [µM] | IC50 [3] [µM] | IC50 [4] [µM] | Activity [5] | Activity [6] | IC50 [7] [µM] |
| --- | --- | --- | --- | --- | --- | --- | --- |
| CCc1ccc(/C=C2\SC(=O)N(CCNC(=O)[C@H]3C[C@@H]4C[C@H]3[C@@H](O)[C@H]4O)C2=O)cc1 | inactive | > 30 | > 30 | > 30 | inactive | inactive | > 30 |
| NC(=O)c1ccccc1Nc1ccc([N+](=O)[O-])c2nonc12 |  |  |  |  |  |  | > 30 |
| O=C(NCc1ccc(B(O)O)cc1)c1ccc(Nc2ccc([N+](=O)[O-])c3nonc23)cc1 | inactive |  |  |  | inactive | inactive |  |
| CCc1ccc(/C=C2\SC(=O)N(CC[C@H]3C[C@H]4C=C[C@@H]3C4)C2=O)cc1 (single isomer, unassigned) |  |  |  |  |  |  | > 30 |
| CCc1ccc(/C=C2\SC(=O)NC2=O)cc1 |  |  |  |  |  |  | > 30 |
| CCc1ccc(/C=C2\SC(=O)N(CC[C@H]3C[C@@H]4C[C@H]3[C@@H](O)[C@H]4O)C2=O)cc1 |  |  |  |  |  |  | > 30 |
| O=C(NCc1ccc(B(O)O)cc1)c1ccccc1Nc1ccc([N+](=O)[O-])c2nonc12 | inactive | > 30 | > 30 | > 30 | inactive | inactive | > 30 |
| O=C(NCc1cccc(B(O)O)c1)c1ccccc1Nc1ccc([N+](=O)[O-])c2nonc12 | inactive | > 30 | > 30 | > 30 | inactive | inactive |  |
| CCc1ccc(/C=C2\SC(=O)N(CCNC(=O)[C@H]3C[C@H]4C=C[C@@H]3C4)C2=O)cc1 |  |  |  |  |  |  | > 30 |
